US9340545B2, “Quinazolin-4 (3H)—one derivatives used as P13 kinase inhibitors” (Respivert Limited, priority 2011, dated 2016)

Tested on: cigarette smoke-induced cell accumulation in murine BALF
Test: Cigarette smoke model
Format: in vivo, A/J mice

| Compound | Activity in the cigarette smoke model (0.3-10 mg/kg, p.o.) | Anti-inflammatory effect as monotherapy in the cigarette smoke model (monotherapy, at the dose used for co-administration (FP dosed at 50 μg/mL)) |
| --- | --- | --- |
| C[C@@H]1C[C@H]2[C@@H]3CCC4=CC(=O)C=C[C@]4(C)[C@@]3(F)[C@@H](O)C[C@]2(C)[C@@]1(O)C(=O)CO [dexamethasone] | inactive |  |
| CCC(=O)O[C@]1(C(=O)SCF)[C@H](C)C[C@H]2[C@@H]3C[C@H](F)C4=CC(=O)C=C[C@]4(C)[C@@]3(F)[C@@H](O)C[C@@]21C [fluticasone propionate] |  | lacks any significant effect |
